Test results: patent publication US20090110708A1, “ANIMATE TISSUE ANTISEPSIS” (priority 2007, published 2009)

Test system: Staphylococcus aureus
Assay: Kill of Staphylococcus aureus inoculated onto inanimate porcine intestine by forced evaporation of the applied solution
Format: cell-based

| Compound | death of the organisms (kill by enhanced evaporation) (initial H2O2 concentrations 4%-10% (vol.), 16 mg/cm^2 on tissue, blown air 50° C., 5.0 m/sec) | log reduction (no alcohol, 3 minute dry time) | log reduction (no alcohol, 3.5 minute dry time) | log reduction (no alcohol, 4 minute dry time) | log reduction (no peroxide, 10% alcohol (EtOH)) |
| --- | --- | --- | --- | --- | --- |
| OO [H2O2, hydrogen peroxide] | significantly killed | 2.21 | 2.68 | 1.79 | – |
| ethyl alcohol [10% alcohol (EtOH), reference compound] | – | – | – | – | no measurable log reduction |
